Reference: paper PMC7883726 (Acta Pharmaceutica Sinica. B, 2021)
Read-outs that look alike come from different tables or passages of the source.

Target: SARS-CoV-2 RdRp (Severe acute respiratory syndrome coronavirus 2, UniProt P0DTD1)
Assay: biochemical
Format: binding
Conditions: for koff: read-out: kdis
[1] = KD, BLI, 1:1 binding model, compounds 3.125–100 μmol/L
[2] = BLI, 1:1 binding model, compounds 3.125–100 μmol/L

| SMILES | kon [M⁻¹ s⁻¹] | Kd [1] [µM] | koff [s⁻¹] | Kd [µM] | kdis [s⁻¹] | also measured |
| --- | --- | --- | --- | --- | --- | --- |
| C[C@@H]1O[C@@H](O[C@@H]2[C@@H](O)[C@H](OCCc3ccc(O)c(O)c3)O[C@H](CO)[C@H]2OC(=O)/C=C/c2ccc(O)c(O)c2)[C@H](O)[C@H](O)[C@H]1O [RAI-S-11, Verbascoside] | 108 | 0.84 ± 0.85 | 9.05e-05 | – | – | – |
| COc1cc(C(=O)NS(=O)(=O)c2ccccc2C)ccc1Cc1cn(C)c2ccc(NC(=O)OC3CCCC3)cc12 [RAI-S-19, Zafirlukast] | 8.43 | > 1000 | 4.99 | – | – | – |
| O=C(Nc1nc(-c2ccc(O)c(O)c2)c(-c2ccccc2)s1)c1ccc(O)c(O)c1 [RAI-S-34, COH29] | 8.10 | – | – | > 1000 | 0.189 | – |
| CC1(C)CC[C@]2(C(=O)O)CC[C@]3(C)C(=CC[C@@H]4[C@@]5(C)CCC(=O)C(C)(C)[C@@H]5CC[C@]43C)[C@@H]2C1 [RAI-S-35, Oleanonic Acid] | 98.4 | 171 ± 35.9 | 0.0168 | – | – | – |
| C[C@@H]1O[C@@H](OC[C@H]2O[C@@H](OCCc3ccc(O)c(O)c3)[C@H](O)[C@@H](O)[C@@H]2OC(=O)/C=C/c2ccc(O)c(O)c2)[C@H](O)[C@H](O)[C@H]1O [RAI-S-36, Forsythoside A] | – | – | – | – | – | Kd [2]: < 50 µM; Kd (BLI, 1:1 binding model, compounds 3.125–100 μmol/L, listed as 36): 1.16 ± 0.44 µM; kon (BLI, association rate constant): 137 M⁻¹ s⁻¹; kdis (BLI, dissociation rate constant): 0.000159 s⁻¹ |
| O=C(O[C@@H]1O[C@@H]2COC(=O)c3cc(O)c(O)c(O)c3-c3c(cc(O)c(O)c3O)C(=O)O[C@H]([C@H]1O)[C@@H]2O)c1cc(O)c(O)c(O)c1 [RAI-S-37, Corilagin] | 496 | 0.54 ± 0.01 | 0.000268 | – | – | – |
| C[C@@H]1O[C@@H](OC[C@H]2O[C@@H](Oc3cc(O)c4c(=O)cc(-c5ccc(O)cc5)oc4c3)[C@H](O[C@@H]3O[C@@H](C)[C@H](O)[C@@H](O)[C@H]3O)[C@@H](O)[C@@H]2O)[C@H](O)[C@H](O)[C@H]1O [RAI-S-38, Ligustroflavone] | – | – | – | – | – | KD [2]: did not detect the binding |
| Cc1ccc(Oc2nc3cc(-c4ccc(-c5ccccc5)cc4)c(Cl)cc3[nH]2)cc1C(=O)O [RAI-S-45, MK-3903] | 302 | – | – | 220 ± 19.4 | 0.0665 | – |
| O=C(O)CCc1cc(C(=O)c2ccc(OC3CCCC3)cc2O)ccc1OCc1ccc2c(=O)[nH]oc2c1 [RAI-S-47, T-5224] | 200 | – | – | 38.7 ± 1.63 | 0.00774 | – |
